According to patent US5444155A, “Molecules with antibody combining sites that induce asymmetry” (The Scripps Research Institute, priority 1991, dated 1995):
Where two headings read alike, the source gives them in different places.

Experiments:
[1] = system: monoclonal antibody (catalytic receptor) produced by hybridoma 37E8, ATCC HB 10868; assay type: biochemical, mouse
[2] = target: Acetyl Cholinesterase EC 3.1.1.7, Type VS, electric eel (Sigma) (Electrophorus electricus, UniProt O42275); assay: Hydrolysis of Compound 1 by authentic acetyl cholinesterase, assayed by gas chromatography
[3] = target: T1, Butyl Cholinesterase EC 3.1.1.8, from horse serum (Sigma) (Equus caballus, UniProt P81908); assay: Hydrolysis of Compound 1 by authentic butyl cholinesterase, assayed by gas chromatography; assay type: biochemical
T1 construct: purchased Sigma Chemical Co., St. Louis
Method: The production of Compound 2 by a monoclonal antibody composition of this invention was assayed at a concentration of 10 μM monoclonal antibody and 1 mM Compound 1 in pH 8.0 ATE buffer (0.52M ACES, 0.52M Tris, 0.01M ethanolamine) at 37° C. The initial rate of hydrolysis of Compound 1 by the monoclonal antibodies produced by hybridoma 37E8 followed Michaelis-Menten kinetics (Table 1 hereinafter).
The conditions used for this study were as follows. Monoclonal antibodies produced by hybridoma 37E8 (10 μM) were added to a solution of 800 μM Compound 1 and 25 μM Compound C. Under these conditions, the substrate concentration was at saturation for the monoclonal antibody (4.5Km) and at approximately Km for either cholinesterase.
^b EC 3.1.1.8. From horse serum (Sigma Chemical Co., St. Louis),
All assays consisted of determining the amount of Compound 2 by gas chromatography analysis (Hewlett Packard 5890A, carbowax 30 m, 0.53 mm bore, capillary column) with ethyl levulinate as an internal standard.

Acetyl Cholinesterase EC 3.1.1.7, Type VS, electric eel (Sigma), sequence (O42275 24-633): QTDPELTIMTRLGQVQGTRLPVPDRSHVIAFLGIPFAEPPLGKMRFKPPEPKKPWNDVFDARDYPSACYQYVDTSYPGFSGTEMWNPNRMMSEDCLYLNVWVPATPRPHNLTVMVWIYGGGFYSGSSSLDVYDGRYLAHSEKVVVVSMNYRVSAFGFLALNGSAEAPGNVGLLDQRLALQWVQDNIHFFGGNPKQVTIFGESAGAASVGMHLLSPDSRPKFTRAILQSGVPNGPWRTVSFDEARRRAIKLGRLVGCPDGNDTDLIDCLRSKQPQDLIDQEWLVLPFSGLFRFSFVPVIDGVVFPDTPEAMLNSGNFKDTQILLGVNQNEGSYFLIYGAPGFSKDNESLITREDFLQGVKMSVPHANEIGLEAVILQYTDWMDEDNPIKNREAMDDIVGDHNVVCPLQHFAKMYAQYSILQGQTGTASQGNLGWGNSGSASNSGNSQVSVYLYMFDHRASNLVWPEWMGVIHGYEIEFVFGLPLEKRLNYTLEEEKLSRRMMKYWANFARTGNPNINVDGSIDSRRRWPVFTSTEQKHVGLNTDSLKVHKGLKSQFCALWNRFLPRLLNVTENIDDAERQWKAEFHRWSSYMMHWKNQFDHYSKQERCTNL
T1 sequence (P81908 whole entry): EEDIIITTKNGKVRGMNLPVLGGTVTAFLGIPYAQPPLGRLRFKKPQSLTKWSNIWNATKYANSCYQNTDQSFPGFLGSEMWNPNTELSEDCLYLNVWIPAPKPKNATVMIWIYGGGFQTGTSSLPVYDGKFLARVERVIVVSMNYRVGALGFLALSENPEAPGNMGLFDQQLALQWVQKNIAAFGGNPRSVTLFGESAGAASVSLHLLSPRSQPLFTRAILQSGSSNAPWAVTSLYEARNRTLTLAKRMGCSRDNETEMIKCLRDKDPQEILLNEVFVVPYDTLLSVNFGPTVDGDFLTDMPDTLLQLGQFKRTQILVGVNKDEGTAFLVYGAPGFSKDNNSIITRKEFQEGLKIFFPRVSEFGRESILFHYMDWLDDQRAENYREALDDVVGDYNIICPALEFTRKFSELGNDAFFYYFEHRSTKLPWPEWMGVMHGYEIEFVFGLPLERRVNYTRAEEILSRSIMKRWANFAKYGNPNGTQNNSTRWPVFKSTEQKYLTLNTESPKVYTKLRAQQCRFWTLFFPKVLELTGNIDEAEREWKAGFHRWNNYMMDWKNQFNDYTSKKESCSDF

Compound	kcat (hydrolysis of Compound 1) ([1]; pH 8)	Km ([1]; pH 8, read-out: Km (hydrolysis of Compound 1)) [µM]	Ki [2] [µM]	inhibition by free Compound C [2]	inhibition of the hydrolytic reaction by free Compound C [1]	Ki ([1]; read-out: Ki (free Compound C)) [µM]	Ki ([1]; read-out: ki (inhibition of hydrolysis of Compound 1 by free Compound C)) [µM]	inhibition by free Compound C ([3]; 800 μM Compound 1, 25 μM Compound C)	Ki ([3]; 0.0117 units enzyme used, read-out: ki (hydrolysis of Compound 1, inhibitor Compound C)) [µM]
CC(=O)O[C@@H]1C=C[C@H](OC(C)=O)C1 [Compound 1, cis-3,5-diactoxycyclopent-1-ene]	0.007	177							
CC(=O)O[C@H]1C=C[C@@H](OP(=O)(O)CCCCCC(=O)O)C1 [Compound C]			630	no inhibition	extensive inhibition	7	7	no inhibition	800
